Reference: PMC6337631, “Effective Tetradentate Compound Complexes against Leishmania spp. that Act on Critical Enzymatic Pathways of These Parasites” (Molecules, 2018)
Read-outs that look alike come from different tables or passages of the source.

Legend:
[1] = system: Leishmania braziliensis amastigote forms; test: Amastigote test (intracellular forms in J774.2 macrophages), L. braziliensis; assay type: cell-based; conditions: 72 h, mean ± SD
Experimental: (§1) Promastigote forms of three different Leishmania spp., L. donovani (MHOM/PE/84/LC26), L. infantum (MCAN/ES/2001/UCM-10) and L. braziliensis (MHOM/BR/1975/M2904), were cultured in vitro in Medium Trypanosomes Liquid (MTL) supplemented with 10% inactivated foetal calf serum (FCS) in an air atmosphere at 28 °C, in Roux flasks (Corning, Manassas, VA, USA) with a surface area of 75 cm^2, according to [33].
(§2) The compounds and the reference drug Glu were dissolved in DMSO (Panreac, Barcelona, Spain) and tested from 100 µM to 1 µM with 0.1% (v/v) DMSO final concentration in plates. Therefore, controls were prepared including 0.1% (v/v) of this component, as previously described.
(§3) J774.2 macrophages were grown and seeded at a density of 1 × 10^4 cells/well in 24-well microplates (Nunc) with rounded coverslips on the bottom and cultured for 48 h in humidified 95% air, 5% CO2 atmosphere at 37 °C in Minimal Essential Medium (MEM) with 2 mM glutamine and 20% (v/v) inactivated FCS. Adherent macrophages were infected with metacyclic promastigotes in the stationary growth phase of L. donovani, L. infantum and L. braziliensis at a multiplicity of infection (MOI) ratio of 1:10 and maintained for 24 h. Non-phagocytosed parasites were removed by washing, and after addition of the testing compounds at concentrations from 100 µM to 1 µM, cultured in 500 μL/well volumes. Control cultures were also included. After 72 h incubation, leishmanicidal activity was assessed based on the number of amastigotes in treated and untreated cultures in methanol-fixed and Giemsa-stained preparations by analyzing 500 host cells distributed in randomly chosen microscopic fields. The leishmanicidal effect was calculated as described to determine the leishmanicidal activity in the promastigote forms. Each drug concentration was tested in triplicate in four separate determinations.

[2] = system: Leishmania braziliensis promastigote forms; test: Promastigote test (extracellular forms), L. braziliensis; assay type: cell-based; conditions: 72 h, 100 µM to 1 µM, mean ± SD
Experimental: as §1, §2
(§4) Promastigote forms were collected in the exponential growth phase and seeded at 1 × 10^5 parasites/mL in 24-well microplates (Nunc, Naperville, IL, USA), after adding each compound at concentrations from 100 µM to 1 µM and cultured in 500 μL/well volumes at 28 °C. After 72 h incubation, the leishmanicidal activity was assessed using a Neubauer haemocytometric chamber in comparison with the control cultures. […] Each drug concentration was tested in triplicate in four separate determinations.

[3] = system: Leishmania donovani promastigote forms; test: Promastigote test (extracellular forms), L. donovani; assay type: cell-based; conditions: 72 h, 100 µM to 1 µM, mean ± SD
Experimental: as §1, §2, §4

[4] = system: L. donovani promastigotes; test: Ultrastructural alterations by TEM, L. donovani; assay type: cell-based, Leishmania donovani; conditions: 72 h at IC25 concentration
Experimental: (§5) Parasites were cultured at a density of 5 × 10^5 cells/mL with medium containing the tested compounds at IC25 concentrations. After 72 h at 28 °C, the cultures were processed using a technique previously described and analysed by TEM (LIBRA 120 PLUS, Zeiss, Barcelona, Spain).

[5] = system: Leishmania infantum amastigote forms; test: Amastigote test (intracellular forms in J774.2 macrophages), L. infantum; assay type: cell-based; conditions: 72 h, mean ± SD
Experimental: as §1, §2, §3

human CuZn-SOD = target: T1, human CuZn-SOD (Homo sapiens, UniProt P00441); test: SOD inhibition assay, human CuZn-SOD; assay type: biochemical; conditions: assayed 100 µM to 0.1 µM; non-linear regression
T1 construct: purchased Sigma Chemical Co. (St. Louis, MO, USA)
Experimental: The previous extraordinary results prompted us to evaluate the inhibitory effect of 3, 5–8 and 10 on the SOD activity. […]
(§6) Parasite cells were collected in the exponential growth phase by centrifugation (400g for 10 min). The pellet obtained after centrifugation was lysated by sonication, processed according to [38] and obtained the homogenate fraction which contained the parasite Fe-SOD. The protein content was quantified using the Sigma Bradford test, which uses BSA as a standard (no trace ability was certified for the BSA standard). Superoxide dismutase activities were determined using a method previously described, which measures the reduction in nitrobluetetrazolium (NBT) by superoxide ions. Human CuZn-SOD. Substrates used in these assays were obtained from Sigma Chemical Co. (St. Louis, MO, USA). Resulting data were analysed using the Newman−Keuls test.

[6] = system: Leishmania infantum promastigote forms; test: Promastigote test (extracellular forms), L. infantum; assay type: cell-based; conditions: 72 h, 100 µM to 1 µM, mean ± SD of four determinations
Experimental: as §1, §2, §4

[7] = system: Leishmania donovani amastigote forms; test: Amastigote test (intracellular forms in J774.2 macrophages), L. donovani; assay type: cell-based; conditions: 72 h, mean ± SD
Experimental: as §1, §2, §3

[8] = system: J774.2 murine macrophages; test: Cytotoxicity test on macrophages by flow cytometry; assay type: cell-based, mouse; conditions: J774.2 macrophages, 72 h, read-out: Toxicity IC50 Macrophage
Experimental: as §2
The macrophage line J774.2 [European collection of cell cultures (ECACC) number 91051511] was derived in 1968 from a tumour in a female BALB/c mouse. Macrophages were grown in humidified 95% air, 5% CO2 atmosphere at 37 °C in Minimal Essential Medium (MEM) with 2 mM glutamine and 20% (v/v) inactivated FCS. The cytotoxicity test on macrophages was performed by Flow cytometry analysis according to a method previously described. Briefly, cells were seeded at a density of 5 × 10^4 cells/well in 24-well microplates (Nunc, Naperville, IL, USA). After 48 h incubation, the medium was removed, and fresh medium was added together with each test compound at concentrations from 100 µM to 1 µM and cultured in 500 μL/well volumes for 72 h. Thereafter, cells were recovered by centrifugation, and cell viability was determined by Flow cytometry (FACS Vantage flow cytometer, Becton Dickinson, San Jose, CA, USA) after incubating the cells with propidium iodide ([…]) and fluorescein diacetate (100 ng/mL). The percentage of viability was calculated in comparison with the control cultures. […] Each drug concentration was tested in triplicate in four separate determinations.

[9] = system: L. braziliensis promastigotes; test: Ultrastructural alterations by TEM, L. braziliensis; assay type: cell-based, Leishmania braziliensis; conditions: 72 h at IC25 concentration
Experimental: as §5

[10] = system: L. infantum promastigotes; test: Ultrastructural alterations by TEM, L. infantum; assay type: cell-based, Leishmania infantum; conditions: 72 h at IC25 concentration
Experimental: as §5

[11] = system: Leishmania braziliensis infection of J774.2 macrophages; test: Infectivity assay, L. braziliensis; assay type: cell-based; conditions: IC25 concentration; last day of the experiment (day 10)
Experimental: (§7) After the initial in vitro studies we were interested in finding out if the six most leishmanicidal compounds could also prevent the infection of host cells. For this reason, we conducted an assay in which the J774.2 macrophages were exposed to the metacyclic promastigotes and the compound at IC25 concentration at the same time. The propagation of the parasitic infection was determined by measuring the infection rate and the average number of amastigotes per macrophage cell present during the 10-day treatment period. In addition, the endocytic (short-time of infection) and infection (long-time of infection) indexes were calculated.
(§8) Adherent macrophages were grown, seeded and infected with metacyclic promastigotes as mentioned above. The compounds at IC25 concentrations (calculated using linear regression analysis from the Kc values of the concentrations employed) were added immediately after infection and incubation was performed for 12 h at 37 °C in humidified 95% air, 5% CO2 atmosphere. in humidified 95% air, 5% CO2 atmosphere at 37 °C Non-phagocytosed parasites and drugs were removed by washing, and then the infected cultures were grown for 10 days, adding fresh culture medium every 48 h, according to [35]. Amastigotes per macrophage count was determined in methanol-fixed and Giemsa-stained preparations as mentioned above every 48 h. […]

[12] = system: L. infantum promastigotes; test: Metabolite excretion by 1H-NMR, L. infantum; assay type: cell-based, Leishmania infantum; conditions: IC25 concentration, 72 h, vs untreated
Experimental: Trypanosomatids catabolizes glucose at a high rate, excreting into the medium partly oxidized end products such as acetate, succinate, L-alanine or L-lactate.
Cultures of L. donovani, L. infantum and L. braziliensis promastigotes were seeded in culture flaks at 5 × 10^5 cells/mL, and after the addition of the compounds at IC25 concentrations at 28 °C. Control cultures were also included. After 72 h of incubation, parasites were centrifuged at 400 × g for 10 min, and supernatants were collected in order to determine the excreted metabolites by ^1H-NMR. Chemical shifts were expressed in parts per million (ppm) using sodium 2,2-dimethyl-2-silapentane-5-sulphonate as the reference signal. The One-dimensional ^1H-NMR spectra were acquired with a VARIAN DIRECT DRIVE 400 MHz Bruker spectrometer (Rheinstetten, Germany) with an AutoX probe using D2O as solvent. The chemical shifts used to identify the respective metabolites were consistent with those described previously by some of the authors. The spectral region of 1.0–5.5 ppm was bucketed into a frequency window of 0.1 ppm. The peak (2.6 ppm) corresponding to DMSO was removed before binning, and the regions corresponding to water (4.5–5.5 ppm) and glucose (3.4–3.8 ppm) were excluded during binning to avoid artefacts due to pre-saturation. […]

parasitic Fe-SOD = test: SOD inhibition assay, parasitic Fe-SOD of the Leishmania spp. taken together; assay type: biochemical
Experimental: The previous extraordinary results prompted us to evaluate the inhibitory effect of 3, 5–8 and 10 on the SOD activity. […] We used promastigotes of Leishmania spp. to obtain Fe-SOD by cellular disruption and precipitation and assayed the compounds at concentrations ranging from 100 µM to 0.1 µM in each case.
as §6

[13] = system: Leishmania infantum infection of J774.2 macrophages; test: Infectivity assay, L. infantum; assay type: cell-based; conditions: IC25 concentration; 10-day infectivity assay
Experimental: as §7, §8

T1 sequence (P00441 whole entry): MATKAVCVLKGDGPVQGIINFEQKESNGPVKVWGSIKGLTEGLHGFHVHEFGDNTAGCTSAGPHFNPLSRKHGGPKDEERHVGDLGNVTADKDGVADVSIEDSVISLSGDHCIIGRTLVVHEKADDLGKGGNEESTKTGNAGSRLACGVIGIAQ

Compound | IC50 ([1]; Leishmania braziliensis) | IC50 ([2]; Leishmania braziliensis) | IC50 ([3]; Leishmania donovani) | IC50 ([5]; Leishmania infantum) | IC50 (human CuZn-SOD) | IC50 ([6]; Leishmania infantum) | IC50 ([7]; Leishmania donovani) | IC50 ([8]; Mus musculus) | ultrastructural alterations of L. braziliensis promastigotes (TEM) [9] | ultrastructural alterations of L. infantum promastigotes (TEM) [10] | IC50 [1] | IC50 [2] | IC50 [3] | IC50 [5] | IC50 [6] | IC50 [7] | IC50 [8] | further results
c1ccc(CN2CCN(Cc3ccccn3)CCN(Cc3ccccn3)CC2)nc1 [Compound 10] | 11.9 ± 0.8 µM | 5.5 ± 0.8 µM | 18.6 ± 0.9 µM | 10.4 ± 0.1 µM | > 300 µM | 2.6 ± 0.7 µM | 11.6 ± 3.3 µM | 126 ± 7.1 µM | shrunken or dehydrated | most destructive compounds | – | – | – | – | – | – | – | ultrastructural alterations of L. donovani promastigotes (TEM) [4]: most lethal end result
meglumine antimoniate [Glucantime, reference compound] | – | – | – | – | – | – | – | – | – | – | 30.4 ± 6.1 µM | 25.6 ± 1.6 µM | 27.3 ± 4.3 µM | 24.2 ± 2.6 µM | 18 ± 3.1 µM | 33.3 ± 3.7 µM | 15.2 ± 1.3 µM | percentage of decrease in infection rate in comparison to the control, L. braziliensis [11]: 36%
[Fe^II2(TACN2)(CH3CN)6](ClO4)4 [Compound 2] | – | – | – | – | – | – | – | – | – | – | 12.5 ± 1.5 µM | 37.2 ± 1.9 µM | 19.7 ± 1.7 µM | 57.5 ± 2.6 µM | 52.6 ± 3.1 µM | 16.3 ± 2.5 µM | 106 ± 8.8 µM | –
CN1CCN(C)CCN(Cc2ccccn2)CC1.O=S(=O)([O-])C(F)(F)F.O=S(=O)([O-])C(F)(F)F.[Mn+2] [Compound 3] | – | – | – | – | > 100 µM | – | – | – | completely swollen, round and full of empty or lipid vacuoles | induced agglutination in the parasites | 8.7 ± 0.6 µM | 9.3 ± 0.3 µM | 28.6 ± 3.5 µM | 3.7 ± 1.6 µM | 8.5 ± 0.4 µM | 11.7 ± 1.3 µM | 98.5 ± 6.3 µM | Excretion variation ACETATE, L. infantum [12]: 18%; Excretion variation SUCCINATE, L. infantum [12]: 32%; IC50 (parasitic Fe-SOD): > 100 µM
CN1CCN(C)CCN(Cc2ccccn2)CC1 [Compound 9] | 30.7 ± 2.5 µM | 53.2 ± 3.6 µM | 29.5 ± 3.6 µM | 33.4 ± 3.2 µM | – | 71.7 ± 10 µM | 14.5 ± 2.7 µM | 100 ± 4.8 µM | – | – | – | – | – | – | – | – | – | –
CN1CCN(C)CCN(Cc2ccccn2)CC1.O=S(=O)([O-])C(F)(F)F.O=S(=O)([O-])C(F)(F)F.[Fe+2] [Compound 1] | – | – | – | – | – | – | – | – | – | – | 21.3 ± 0.9 µM | 22.3 ± 0.6 µM | 28.6 ± 5.8 µM | 20.5 ± 1.8 µM | 18.5 ± 1.6 µM | 12.5 ± 2.7 µM | 37.9 ± 4.2 µM | –
CN1CCN(C)CCN(CCN2CCN(C)CCN(C)CC2)CC1 [Compound 11, TACN2] | 30.4 ± 1.3 µM | 60.6 ± 3.8 µM | 29.5 ± 4.1 µM | 34.6 ± 2.5 µM | – | 87.5 ± 5.1 µM | 19.8 ± 2.6 µM | 75.1 ± 4.7 µM | – | – | – | – | – | – | – | – | – | –
CN(Cc1ccccn1)C1CCCCC1N(C)Cc1ccccn1 (stereo not drawn) [Compound 8] | 21.7 ± 1.4 µM | 73.8 ± 3.6 µM | 31.7 ± 2.4 µM | 22.5 ± 3.1 µM | > 250 µM | 83 ± 9.9 µM | 1.9 ± 0.3 µM | 268 ± 16.2 µM | round and lacked in ribosomes | most destructive compounds | – | – | – | – | – | – | – | ultrastructural alterations of L. donovani promastigotes (TEM) [4]: expanded and disperse Golgi apparatus; day at which the decline in the infection rate appeared, L. infantum [13]: 0.5 days
